These results are taken from EPA's ToxValDB 9.5 (doi:10.2903/j.efsa.2012.2502).

Bounds are passed on as bounds.

Series [1] has as its system Colinus virginianus. As to conditions: acute, oral, mortality.
In series [2] the test system is Typhlodromus pyri. Description: LR50; higher = less toxic. As to conditions: not reported; mortality.
Series [3] deals with Apis mellifera. Conditions: acute, mortality.
For series [4], the system named is Oryctolagus sp. As to conditions: developmental; development.
Series [5] has as its system Rattus norvegicus. As to conditions: for LD50: acute, oral, mortality; for NOAEL: reproduction developmental, histopathology: nonneoplastic.
In series [6] the test system is Tagia sp. Conditions: acute; duration: 14 days; mortality.
Series [7] has as its system Oncorhynchus mykiss. As to conditions: acute; duration: 96 hours; mortality.

For `C=C1C[C@]23C[C@@]1(O)CC[C@H]2[C@@]12C=C[C@H](O)[C@@](C)(C(=O)O1)[C@H]2[C@@H]3C(=O)O` [Gibberellic acid], the LD50 was greater than 1380 mg/kg-day in series [1] (diet) and greater than 2250 mg/kg in series [1].

Take `C=C1C[C@]23C[C@H]1CC[C@H]2[C@@]12C=C[C@H](O)[C@@](C)(C(=O)O1)[C@H]2[C@@H]3C(=O)O` [Gibberellin A7]: the LR50 in series [2] was greater than 40 g/ha. In addition, the LD50 in series [3] (dermal) was greater than 100 µg/piece; in series [3] (oral, unspecified), greater than 87 µg/piece; in series [5] it was greater than 5000 mg/kg. For the same molecule, the no-observed-adverse-effect level (NOAEL) in series [4] and in series [5] was 300 mg/kg-day throughout. Also, the results for the LC50 in series [6] and in series [7] were greater than 1250 mg/kg and greater than 1.3 µg/mL, respectively.

In turn, `C=C1C[C@]23C[C@H]1CC[C@H]2[C@@]12CC[C@H](O)[C@@](C)(C(=O)O1)[C@H]2[C@@H]3C(=O)O` [Gibberellin A4] registered an LR50 in series [2] greater than 40 g/ha. The LD50 in series [3] (dermal) is greater than 100 µg/piece; in series [3] (oral, unspecified), greater than 87 µg/piece; in series [5], greater than 5000 mg/kg. For the same molecule, the NOAEL in series [4] and in series [5] was 300 mg/kg-day in each case. In addition, the LC50 is greater than 1250 mg/kg in series [6] and greater than 1.3 µg/mL in series [7].

In general, NOAEL refers to the highest dose or exposure tested at which no adverse effect was seen.
